Measurements taken from paper PMC4496498, “Radiosynthesis, In Vivo Biological Evaluation, and Imaging of Brain Lesions with [^123I]-CLINME, a New SPECT Tracer for the Translocator Protein” (Disease Markers, 2015).

Experiments:
TSPO [1] = molecular target: T1, TSPO (Rattus norvegicus, UniProt P16257); assay: In vitro binding assay, TSPO, [^3H]-Ro 5-4864; design: from tissue
Experimental: (§1) […] (IC50) of CLINME for the TPSO and for the central benzodiazepine receptor (CBR) was determined as described previously. The IC50 values were converted to the inhibition constant, Ki, using Cheng-Prusoff equation.

TSPO [2] = molecular target: T1, TSPO; assay: In vitro autoradiography with [^125I]-CLINME on lesioned brain tissue; assay type: binding, SD rats; design: from tissue; host or cells: male Sprague-Dawley rats: peripheral organs and brain in vivo; AMPA-lesioned striatum; brain sections; conditions: 20 μM drug, 16 nM [^125I]-CLINME
TSPO [3] = molecular target: T1, TSPO; assay: In vitro binding assay, TSPO, [^3H]-PK11195; design: from tissue
Experimental: as §1

[4] = molecular target: central benzodiazepine receptor (CBR); assay: In vitro binding assay, central benzodiazepine receptor; conditions: membranes from kidney and brain cortex; read-out: inhibition constant for the CBR
Experimental: as §1

[5] = Lipophilicity, log P estimated from HPLC retention times; assay type: physicochemical; conditions: pH 7.5
Description: The log P values were estimated by comparing HPLC retention times of test compounds with retention times of standards having known log P values as described.

TSPO [6] = molecular target: T1, TSPO; conditions: competing drug 1 mg/Kg i.v. 5 min prior to tracer; rats, 30 min p.i.; vs controls
Experimental: The saturation effect of [^123I]-CLINME uptake was studied in competition experiments by injecting CLINME (1 mg/Kg), 5 min prior to [^123I]-CLINME (0.7 MBq, 10 pmoles in 0.1 mL of 0.9% saline), via the tail vein, to 8–10-week-old male SD rats.
The drugs were dissolved in dimethyl sulfoxide/saline (1 : 5) and injected intravenously 5 min prior to [^123I]-CLINME. Groups of rats (n = 3-4) were sacrificed by CO2 administration followed by cervical fracture 30 min after administration of [^123I]-CLINME and peripheral organs (liver, spleen, lung, heart, kidney, and adrenals), blood, olfactory bulbs, and the remainder of the brain were removed. The radioactivity concentrations were calculated as described previously. Results were analysed by one-way analysis of variance (ANOVA) followed by Tukey's post hoc test for comparing the tissue radioactivity concentrations in the treated animals (n = 3-4) and in the controls (n = 6). The criterion for significance was P < 0.05.

TPSO = conditions: rats, dose of 5 mg/Kg; cited from earlier work

SMILES | Ki (TSPO [1]) | effect of coincubation on the differential (lesioned vs contralateral) binding of [^125I]-CLINME (TSPO [2]) | Ki (TSPO [3]) | selectivity for the TPSO over the CBR (TSPO [3]; in vitro) | Ki [4] | chromatographic logP [5] | melting point | decrease of [^123I]-CLINME uptake in the heart (TSPO [6]) | decrease of [^123I]-CLINME uptake in the kidney (TSPO [6]) | decrease of [^123I]-CLINME uptake in the lungs (TSPO [6]) | decrease of [^123I]-CLINME uptake in the olfactory bulbs (TSPO [6]) | increase of [^123I]-CLINME uptake in the blood (TSPO [6]) | chromatographic logP ([5]; HPLC retention times compared with standards of known log P) | block of the uptake of [^123I]-PK11195 in the adrenals (TPSO)
CCN(C)C(=O)Cc1c(-c2ccc(I)cc2)nc2ccc(Cl)cn12 [CLINME, 2-(6-Chloro-2-(4-iodophenyl)imidazo[1,2-a]pyridin-3-yl)-N-ethyl-N-methylacetamide] | 4.5 ± 0.6 nM | eliminated | 1.6 ± 0.2 nM | 110 fold | 183 ± 20 nM | 3.27 | 65 to 67 °C | 86% | 71% | 76% | 38% | 45% |  | 
CCC(C)N(C)C(=O)c1cc2ccccc2c(-c2ccccc2Cl)n1 (centres unmarked) [PK11195] |  | eliminated |  |  |  |  |  | 87% | 72% | 81% | 36% | 29% | 3.35 | 85%
